In ChEMBL document CHEMBL3576831, “Discovery of a Selective TRPM8 Antagonist with Clinical Efficacy in Cold-Related Pain” (ACS Med Chem Lett, 2015):

Key:
[1] = molecular target: Transient receptor potential cation channel subfamily M member 8 (Homo sapiens, UniProt Q7Z2W7); assay: Antagonist activity against human recombinant TRPM8 expressed in CHO T-rex cells assessed as inhibition of WS12-induced calcium response pre-incubated for 20 mins before WS12 addition; assay type: cell-based
[2] = tested on: Hepatocyte; assay: Intrinsic clearance in human hepatocytes assessed per million cells; assay type: ADME, cell-based
[3] = molecular target: Voltage-gated inwardly rectifying potassium channel KCNH2 (Homo sapiens, UniProt Q12809); assay: Inhibition of dofetilide binding to human ERG
[4] = Lipophilicity, log D of the compound; assay type: physicochemical; settings: octanol/water
[5] = tested on: Liver microsome; assay: Intrinsic clearance in rat liver microsomes; assay type: ADME
[6] = Intrinsic clearance in human liver microsomes; assay type: ADME; settings: read-out: CLH
[7] = molecular target: CYP2C9 (Homo sapiens, UniProt P11712); assay: Inhibition of CYP2C9 (unknown origin) at 3 uM; assay type: ADME
[8] = molecular target: CYP3A4 (Homo sapiens, UniProt P08684); assay: Inhibition of CYP3A4 (unknown origin) at 3 uM; assay type: ADME
[9] = molecular target: T1, CYP2C8 (Homo sapiens, UniProt P10632); assay: Inhibition of CYP2C8 (unknown origin) at 3 uM; assay type: ADME
T1 sequence (P10632 whole entry): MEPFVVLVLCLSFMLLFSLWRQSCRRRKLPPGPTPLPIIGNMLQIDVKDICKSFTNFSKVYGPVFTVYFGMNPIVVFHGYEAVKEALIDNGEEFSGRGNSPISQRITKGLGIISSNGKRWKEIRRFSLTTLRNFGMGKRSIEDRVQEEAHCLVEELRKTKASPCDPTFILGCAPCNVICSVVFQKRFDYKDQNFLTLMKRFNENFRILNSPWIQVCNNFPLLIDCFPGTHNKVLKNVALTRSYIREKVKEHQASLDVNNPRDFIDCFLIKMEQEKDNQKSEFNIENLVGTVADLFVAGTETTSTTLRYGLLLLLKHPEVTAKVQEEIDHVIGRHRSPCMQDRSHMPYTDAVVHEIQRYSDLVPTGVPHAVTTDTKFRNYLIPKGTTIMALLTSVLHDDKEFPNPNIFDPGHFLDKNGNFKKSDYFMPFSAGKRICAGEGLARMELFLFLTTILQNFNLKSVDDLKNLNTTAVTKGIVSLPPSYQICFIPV

[10] = molecular target: T2, CYP1A2 (Homo sapiens, UniProt P05177); assay: Inhibition of CYP1A2 (unknown origin) at 3 uM; assay type: ADME
T2 sequence (P05177 whole entry): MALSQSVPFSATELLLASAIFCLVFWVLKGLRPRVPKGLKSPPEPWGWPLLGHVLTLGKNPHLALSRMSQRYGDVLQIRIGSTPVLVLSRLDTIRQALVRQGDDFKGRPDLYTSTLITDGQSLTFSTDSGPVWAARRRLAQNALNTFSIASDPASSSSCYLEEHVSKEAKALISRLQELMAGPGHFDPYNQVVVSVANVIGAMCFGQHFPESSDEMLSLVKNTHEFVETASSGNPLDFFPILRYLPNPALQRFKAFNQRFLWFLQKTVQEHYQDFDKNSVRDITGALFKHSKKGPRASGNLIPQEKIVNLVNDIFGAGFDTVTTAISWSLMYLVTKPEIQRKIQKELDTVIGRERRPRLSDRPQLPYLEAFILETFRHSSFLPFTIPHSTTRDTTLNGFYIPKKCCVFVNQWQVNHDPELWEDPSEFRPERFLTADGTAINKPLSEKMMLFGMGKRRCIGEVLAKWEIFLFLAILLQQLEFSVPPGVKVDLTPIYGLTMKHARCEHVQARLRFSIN

[11] = molecular target: CYP2D6 (Homo sapiens, UniProt P10635); assay: Inhibition of CYP2D6 (unknown origin) at 3 uM; assay type: ADME
Chain of CYP2D6 (P10635 whole entry): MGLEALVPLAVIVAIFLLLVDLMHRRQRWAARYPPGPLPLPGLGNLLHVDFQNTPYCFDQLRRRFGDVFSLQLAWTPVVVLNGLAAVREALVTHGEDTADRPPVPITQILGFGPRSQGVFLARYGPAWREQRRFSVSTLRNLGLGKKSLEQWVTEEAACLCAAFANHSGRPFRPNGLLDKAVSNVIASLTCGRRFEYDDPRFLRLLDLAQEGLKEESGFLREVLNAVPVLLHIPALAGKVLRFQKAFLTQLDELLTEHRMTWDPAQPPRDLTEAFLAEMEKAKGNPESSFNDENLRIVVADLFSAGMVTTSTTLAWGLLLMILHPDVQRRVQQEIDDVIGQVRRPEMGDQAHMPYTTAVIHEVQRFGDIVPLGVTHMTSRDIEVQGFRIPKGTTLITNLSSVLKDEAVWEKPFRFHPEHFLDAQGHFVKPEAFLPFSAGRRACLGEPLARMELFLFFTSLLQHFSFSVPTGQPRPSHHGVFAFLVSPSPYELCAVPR

Chain of Transient receptor potential cation channel subfamily M member 8 (Q7Z2W7 whole entry): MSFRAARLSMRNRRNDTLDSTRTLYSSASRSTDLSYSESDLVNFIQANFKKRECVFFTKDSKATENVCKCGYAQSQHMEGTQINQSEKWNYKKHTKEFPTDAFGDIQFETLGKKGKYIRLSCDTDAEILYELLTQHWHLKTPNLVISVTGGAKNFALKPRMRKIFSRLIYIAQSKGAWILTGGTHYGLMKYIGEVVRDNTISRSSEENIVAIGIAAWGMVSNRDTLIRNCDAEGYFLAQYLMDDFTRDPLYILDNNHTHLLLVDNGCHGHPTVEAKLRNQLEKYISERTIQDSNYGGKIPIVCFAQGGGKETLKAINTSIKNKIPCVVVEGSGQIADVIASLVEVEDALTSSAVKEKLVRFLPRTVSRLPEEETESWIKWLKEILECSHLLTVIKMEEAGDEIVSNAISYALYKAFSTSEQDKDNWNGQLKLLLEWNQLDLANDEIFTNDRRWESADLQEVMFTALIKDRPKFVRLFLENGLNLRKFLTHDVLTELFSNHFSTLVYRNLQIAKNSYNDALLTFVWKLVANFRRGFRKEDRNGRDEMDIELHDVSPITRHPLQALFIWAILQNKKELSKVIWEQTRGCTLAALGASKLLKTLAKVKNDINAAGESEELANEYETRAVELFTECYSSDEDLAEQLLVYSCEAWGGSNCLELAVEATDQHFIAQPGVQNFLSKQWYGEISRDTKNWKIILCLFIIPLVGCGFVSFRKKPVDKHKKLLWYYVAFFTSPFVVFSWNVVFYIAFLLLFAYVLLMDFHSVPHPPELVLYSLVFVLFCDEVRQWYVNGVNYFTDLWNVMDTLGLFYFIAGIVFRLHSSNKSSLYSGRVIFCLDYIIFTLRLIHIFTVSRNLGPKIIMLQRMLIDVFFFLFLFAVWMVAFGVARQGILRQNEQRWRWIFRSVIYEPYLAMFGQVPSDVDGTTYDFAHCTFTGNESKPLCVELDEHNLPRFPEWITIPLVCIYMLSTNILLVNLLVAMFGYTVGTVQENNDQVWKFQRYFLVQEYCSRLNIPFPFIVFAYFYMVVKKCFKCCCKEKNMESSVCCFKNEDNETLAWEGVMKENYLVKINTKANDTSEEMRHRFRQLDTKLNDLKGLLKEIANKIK
Chain of Voltage-gated inwardly rectifying potassium channel KCNH2 (Q12809 whole entry): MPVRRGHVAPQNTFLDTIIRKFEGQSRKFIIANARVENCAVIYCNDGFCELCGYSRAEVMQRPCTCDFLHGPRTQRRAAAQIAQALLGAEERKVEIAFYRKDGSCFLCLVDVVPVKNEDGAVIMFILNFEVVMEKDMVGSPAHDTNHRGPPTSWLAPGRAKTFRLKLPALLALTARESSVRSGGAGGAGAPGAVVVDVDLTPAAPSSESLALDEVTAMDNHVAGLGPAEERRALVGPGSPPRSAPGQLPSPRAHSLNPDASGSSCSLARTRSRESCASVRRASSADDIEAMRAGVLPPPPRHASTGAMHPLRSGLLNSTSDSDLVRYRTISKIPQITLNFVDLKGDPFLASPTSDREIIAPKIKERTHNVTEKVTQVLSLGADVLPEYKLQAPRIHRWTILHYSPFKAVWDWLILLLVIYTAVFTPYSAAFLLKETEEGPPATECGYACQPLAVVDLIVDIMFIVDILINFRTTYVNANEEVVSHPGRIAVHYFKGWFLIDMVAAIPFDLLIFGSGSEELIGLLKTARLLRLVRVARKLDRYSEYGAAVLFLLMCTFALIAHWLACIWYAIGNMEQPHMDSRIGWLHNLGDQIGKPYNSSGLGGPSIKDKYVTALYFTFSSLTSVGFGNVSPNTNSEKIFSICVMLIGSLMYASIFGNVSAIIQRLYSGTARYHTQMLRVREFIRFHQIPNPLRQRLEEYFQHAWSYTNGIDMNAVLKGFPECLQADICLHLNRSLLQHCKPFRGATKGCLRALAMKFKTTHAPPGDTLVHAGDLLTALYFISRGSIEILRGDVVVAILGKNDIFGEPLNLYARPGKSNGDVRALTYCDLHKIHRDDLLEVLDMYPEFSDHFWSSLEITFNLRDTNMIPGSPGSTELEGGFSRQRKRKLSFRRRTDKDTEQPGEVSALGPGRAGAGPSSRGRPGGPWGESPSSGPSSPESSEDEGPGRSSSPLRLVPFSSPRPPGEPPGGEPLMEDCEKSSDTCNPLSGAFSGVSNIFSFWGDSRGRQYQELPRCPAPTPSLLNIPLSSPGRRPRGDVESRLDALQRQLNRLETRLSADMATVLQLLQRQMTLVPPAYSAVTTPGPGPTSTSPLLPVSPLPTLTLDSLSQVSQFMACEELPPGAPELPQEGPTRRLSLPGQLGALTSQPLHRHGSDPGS
Chain of CYP2C9 (P11712 whole entry): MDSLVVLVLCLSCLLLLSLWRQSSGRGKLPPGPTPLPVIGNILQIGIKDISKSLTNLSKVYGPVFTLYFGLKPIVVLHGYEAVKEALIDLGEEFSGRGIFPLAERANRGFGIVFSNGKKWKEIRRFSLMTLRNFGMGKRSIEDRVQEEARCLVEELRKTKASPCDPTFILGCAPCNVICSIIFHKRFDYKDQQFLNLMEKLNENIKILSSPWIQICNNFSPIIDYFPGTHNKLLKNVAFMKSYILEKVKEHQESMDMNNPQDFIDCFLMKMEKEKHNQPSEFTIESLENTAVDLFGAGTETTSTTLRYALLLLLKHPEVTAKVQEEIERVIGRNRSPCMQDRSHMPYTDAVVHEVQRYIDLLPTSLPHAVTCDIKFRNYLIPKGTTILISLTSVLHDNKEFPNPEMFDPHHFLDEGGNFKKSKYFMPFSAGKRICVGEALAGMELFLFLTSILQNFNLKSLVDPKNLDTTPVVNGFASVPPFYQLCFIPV
Chain of CYP3A4 (P08684 whole entry): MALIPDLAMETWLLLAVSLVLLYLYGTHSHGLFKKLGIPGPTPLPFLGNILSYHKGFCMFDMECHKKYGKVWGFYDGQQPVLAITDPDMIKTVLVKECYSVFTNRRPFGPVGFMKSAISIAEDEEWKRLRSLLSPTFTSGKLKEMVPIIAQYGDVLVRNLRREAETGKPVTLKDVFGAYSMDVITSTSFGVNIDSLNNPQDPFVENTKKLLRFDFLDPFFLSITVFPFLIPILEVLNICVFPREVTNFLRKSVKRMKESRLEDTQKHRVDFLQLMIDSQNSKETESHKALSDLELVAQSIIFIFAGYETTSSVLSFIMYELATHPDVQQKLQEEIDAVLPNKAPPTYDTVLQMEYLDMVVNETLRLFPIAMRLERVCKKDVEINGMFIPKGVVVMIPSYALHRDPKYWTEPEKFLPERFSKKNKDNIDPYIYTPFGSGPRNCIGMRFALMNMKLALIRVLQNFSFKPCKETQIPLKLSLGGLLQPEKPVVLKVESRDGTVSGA

Row | SMILES | IC50 [1] [µM] | logD [4] | microsomal CLint [5] [µL/min/mg] | microsomal CLint [6] [µL/min/mg] | other results
1 | C[C@H](c1ccc(F)cc1)N(Cc1cccc(CC(=O)O)c1)C(=O)c1cnc2ccccc2c1 | > 3.25 |  |  |  | 
2 | COc1ccc(C(C)N(Cc2cccc(C(=O)O)c2)C(=O)c2cnc3ccccc3c2)cc1 (stereo not drawn) | 6.1 |  |  |  | 
3 | C[C@H](c1ccc(F)cc1)N(Cc1cccc(C(=O)O)c1)C(=O)Cc1cccc(Cl)c1 | > 10 |  |  |  | 
4 | O=C(O)c1cccc(CN(C(=O)c2cnc3ccccc3c2)[C@H](CO)c2ccccc2)c1 | > 6.86 |  |  |  | 
5 | CC(C)(c1ccc(F)cc1)N(Cc1cccc(C(=O)O)c1)C(=O)c1cnc2ccccc2c1 | > 10 |  |  |  | 
6 | C[C@H](c1ccc(F)cc1)N(Cc1cccc(C(=O)O)c1)C(=O)c1cc2ccccc2cn1 | 0.09 | 1.1 | 166 | 16 | hepatocyte intrinsic clearance [2]: 21 µL/min/million cells; Ki [3]: > 9.18 µM
7 | C[C@H](c1ccc(F)cc1)N(Cc1cccc(C(=O)O)c1)C(=O)c1cn2ccccc2n1 | 0.307 | 0.6 | 113 |  | Ki [3]: > 9.18 µM
8 | C[C@H](c1cccc(Cl)c1)N(Cc1cccc(C(=O)O)c1)C(=O)c1cnc2ccccc2c1 | 0.062 | 1.5 | 102 | 10 | inhibition at 3 µM [7]: 0%; inhibition at 3 µM [8]: 0%; inhibition at 3 µM [9]: 0%; hepatocyte intrinsic clearance [2]: 45 µL/min/million cells; inhibition at 3 µM [10]: 0%; inhibition at 3 µM [11]: 0%
9 | C[C@H](c1ccc(F)cc1)N(Cc1cccc(C(=O)O)c1)C(=O)c1cc2ccccc2nn1 | 0.34 |  | 76 | < 8 | 
10 | C[C@H](c1ccc(F)cc1)N(Cc1cccc(C(=O)O)c1)C(=O)c1cccc(-c2ccccc2)c1 | 0.837 |  |  |  | 
11 | O=C(O)c1cccc(CN(Cc2ccc(F)cc2)C(=O)c2cnc3ccccc3c2)c1 | > 9.36 |  |  |  | 
12 | C[C@H](c1ccc(F)cc1)N(Cc1cccc(C(=O)O)c1)C(=O)c1cc2ccccn2n1 | 0.094 | 0.9 | 325 | 42 | hepatocyte intrinsic clearance [2]: 23 µL/min/million cells; Ki [3]: > 9.18 µM
13 | CC(c1ccc(F)cc1)N(Cc1cccc(C(=O)O)c1)C(=O)c1ccc2c(c1)CCO2 (racemic) | 3.62 |  |  |  | 
14 | C[C@H](c1ccc(F)cc1)N(Cc1cccc(C(=O)O)c1)C(=O)c1cc2cc[nH]c2cn1 | 0.951 |  |  |  | 
15 | C[C@H](c1ccc(F)cc1F)N(Cc1cccc(C(=O)O)c1)C(=O)c1cc2ccccc2cn1 | 0.06 | 1.1 | 31 | 11 | inhibition at 3 µM [7]: 0%; inhibition at 3 µM [8]: 0%; inhibition at 3 µM [9]: 0%; hepatocyte intrinsic clearance [2]: < 2 µL/min/million cells; inhibition at 3 µM [10]: 0%; inhibition at 3 µM [11]: 0%
